# Laboratory results published in patent US11666558B2, “Methods of treating intraocular pressure with activators of Tie-2” (EyePoint Pharmaceuticals, Inc., priority 2015, dated 2023).
# Several values for one entry are separate records, joined by “and”; a condition that tells them apart may be missing. Equal values may be shown once. Where a name gives a salt, the structure may show the parent alone. Read-outs that look alike come from different tables or passages of the source.
# Experiment: Ocular tissue concentrations (aqueous humor, vitreous humor, iris, retina, choroid, cornea) after topical ocular, subcutaneous and intravitreal administration
# Format: in vivo, New Zealand White rabbits
# Conditions: for Average Peak Concentration, Vitreous Humor: solution
# Description: To measure the concentration of Compound 1 in plasma and ocular tissues following topical ocular, subcutaneous, and intravitreal administration, New Zealand White rabbits were administered Compound 1, and plasma and ocular samples were collected at pre-determined time points. Compound 1 formulations were prepared fresh on each day of dosing.
# Ocular tissue samples from both eyes of each animal were collected and weights were recorded. Plasma and ocular tissue sample concentrations of Compound 1 were determined by LC-MS/MS.
# New Zealand White rabbits weighing 2.5 to 3.5 kg were used on this study. Rabbits were housed one per cage. Animals were not fasted and only healthy animals with no ocular illness were used. Two rabbits per group were sacrificed at each of four ocular tissue sampling time points for a total of eight rabbits per group.
# Animals were anesthetized for ocular (topical) and intravitreal dosing following the 12IA7 IACUC protocol. Each rabbit received a bolus dose of test formulation either via topical ocular administration 3 times daily on Days 1 and 2 (at 0, 6, and 12 hours), and once on Day 3 (at 0 hours) into both eyes; via intravitreal administration into both eyes once on Day 1 (at 0 hours); or via subcutaneous administration 2 times daily on Days 1 and 2 (at 0 and 8 hours) and once daily on Day 3 (at 0 hours). Doses were given within an approximately 1 hour window each day where applicable.
# On Day 1, for intravitreal administration, or on Day 3, for topical ocular and subcutaneous administration, at the appropriate ocular tissue collection time points, animals were euthanized and both eyes were enucleated immediately. Following enucleation, each eye was rinsed with phosphate-buffered saline. Ocular tissue samples from both eyes of each animal were collected at predetermined time points and weights were recorded. All the samples were frozen immediately on dry ice, and stored at −60° C. to −80° C. pending bioanalysis.
# An LC-MS/MS method was developed for the determination of Compound 1 in rabbit aqueous tissues (plasma, aqueous and vitreous humor) and solid ocular tissue samples. A pre-study standard curve was analyzed to determine the specificity, range, and lower limit of quantitation of the method. Plasma and tissue homogenate study samples were extracted and analyzed. All the samples were treated identically to the standards.
# One eight-point standard curve was used in each analytical batch. To be accepted, each batch must have had at least five of eight standards with accuracy within ±20% of nominal, except at the lower limit of quantification (LLOQ), where ±25% was acceptable.
# Concentration versus time data is plotted in FIGS. 3-16. All data are expressed as ng/g of the free drug. Samples that were below the limit of quantitation (0.2 ng/mL) were not used in the calculation of averages.
# [1] = Group 1 topical ocular 1.2 mg/eye, 2.0 hr
# [2] = Group 1 topical ocular 1.2 mg/eye, 4.0 hr
# [3] = Group 2 subcutaneous 5 mg/kg, 0.5 hr
# [4] = Group 2 subcutaneous 5 mg/kg, 1.0 hr
# [5] = Group 2 subcutaneous 5 mg/kg, 2.0 hr
# [6] = Group 2 subcutaneous 5 mg/kg, 4.0 hr
# [7] = Group 4 intravitreal 2.5 mg per eye, 6.0 hr
# [8] = Group 4 intravitreal 2.5 mg per eye, 24 hr
# [9] = Group 4 intravitreal 2.5 mg per eye, 48 hr
# [10] = Group 4 intravitreal 2.5 mg per eye, 72 hr
compound,measurement,setting,value
COC(=O)N[C@@H](Cc1ccccc1)C(=O)N[C@@H](Cc1ccc(NS(=O)(=O)O)cc1)c1csc(-c2cccs2)n1 [Compound 1 sodium salt],"Average Peak Concentration, Vitreous Humor",Group 1 topical ocular 0.70 mg/kg/dose,0.61 ng/g
same,"aqueous humor Conc., individual eyes (OD, OS)","Group 1 topical ocular 1.2 mg/eye, 0.5 hr",3.44 ng/mL and 1.78 ng/mL and 12.8 ng/mL
same,"aqueous humor Conc., individual eyes (OD, OS)","Group 1 topical ocular 1.2 mg/eye, 1.0 hr",3.55 ng/mL and 3.05 ng/mL
same,"aqueous humor Conc., individual eyes (OD, OS)",[1],2.46 ng/mL and 14.5 ng/mL and 15.8 ng/mL
same,"vitreous humor Conc., individual eyes (OD, OS)",[1],1.14 ng/mL and 0.950 ng/mL
same,"aqueous humor Conc., individual eyes (OD, OS)",[2],5.48 ng/mL and 5.61 ng/mL and 7.78 ng/mL and 14.1 ng/mL
same,"vitreous humor Conc., individual eyes (OD, OS)",[2],1.09 ng/mL and 2.20 ng/mL and 0.551 ng/mL
same,"Average Peak Concentration, Vitreous Humor",Group 2 subcutaneous 5 mg/kg/dose,0.83 ng/g
same,"aqueous humor Conc., individual eyes (OD, OS)",[3],23.5 ng/mL and 24.6 ng/mL and 18.0 ng/mL and 38.2 ng/mL
same,"vitreous humor Conc., individual eyes (OD, OS)",[3],1.03 ng/mL and 0.537 ng/mL and 0.981 ng/mL
same,"aqueous humor Conc., individual eyes (OD, OS)",[4],4.51 ng/mL and 1.84 ng/mL and 3.22 ng/mL and 3.63 ng/mL
same,"vitreous humor Conc., individual eyes (OD, OS)",[4],0.252 ng/mL and 0.766 ng/mL and 0.442 ng/mL and 0.337 ng/mL
same,"aqueous humor Conc., individual eyes (OD, OS)",[5],0.498 ng/mL and 0.453 ng/mL
same,"vitreous humor Conc., individual eyes (OD, OS)",[5],BLOQ (Below the limit of quantitation (0.2 ng/mL))
same,"aqueous humor Conc., individual eyes (OD, OS)",[6],BLOQ (Below the limit of quantitation (0.2 ng/mL))
same,"vitreous humor Conc., individual eyes (OD, OS)",[6],BLOQ (Below the limit of quantitation (0.2 ng/mL))
same,"aqueous humor Conc., individual eyes (OD, OS)",[7],77100 ng/mL and 75300 ng/mL and 79300 ng/mL
same,"vitreous humor Conc., individual eyes (OD, OS)",[7],1450000 ng/mL and 1480000 ng/mL and 432000 ng/mL
same,"aqueous humor Conc., individual eyes (OD, OS)",[8],5190 ng/mL and 6810 ng/mL
same,"vitreous humor Conc., individual eyes (OD, OS)",[8],295000 ng/mL and 406000 ng/mL and 259000 ng/mL
same,"aqueous humor Conc., individual eyes (OD, OS)",[9],1510 ng/mL and 2330 ng/mL and 1970 ng/mL
same,"vitreous humor Conc., individual eyes (OD, OS)",[9],82300 ng/mL and 68600 ng/mL and 91900 ng/mL
same,"aqueous humor Conc., individual eyes (OD, OS)",[10],23.2 ng/mL and 16.1 ng/mL and 49.7 ng/mL and 49.0 ng/mL
same,"vitreous humor Conc., individual eyes (OD, OS)",[10],13500 ng/mL and 11700 ng/mL and 14100 ng/mL
same,concentration at 6 hr,"New Zealand White, rabbit, aqueous humor, other: intravitreal, 2.5 mg per eye, Group 4 intravitreal 2.5 mg per eye, 6.0 hr, read-out: aqueous humor Average Conc.",80600 ng/g
same,concentration at 6 hr,"New Zealand White, rabbit, aqueous humor, other: intravitreal, 2.5 mg per eye, Group 4 intravitreal 2.5 mg per eye, 6.0 hr, read-out: aqueous humor Conc., individual eyes (OD, OS)",90600 ng/mL
same,concentration at 24 hr,"New Zealand White, rabbit, aqueous humor, other: intravitreal, 2.5 mg per eye, Group 4 intravitreal 2.5 mg per eye, 24 hr, read-out: aqueous humor Average Conc.",9000 ng/g
same,concentration at 24 hr,"New Zealand White, rabbit, aqueous humor, other: intravitreal, 2.5 mg per eye, Group 4 intravitreal 2.5 mg per eye, 24 hr, read-out: aqueous humor Conc., individual eyes (OD, OS)",4700 ng/mL
same,concentration at 48 hr,"New Zealand White, rabbit, aqueous humor, other: intravitreal, 2.5 mg per eye, Group 4 intravitreal 2.5 mg per eye, 48 hr, read-out: aqueous humor Average Conc.",1960 ng/g
same,concentration at 48 hr,"New Zealand White, rabbit, aqueous humor, other: intravitreal, 2.5 mg per eye, Group 4 intravitreal 2.5 mg per eye, 48 hr, read-out: aqueous humor Conc., individual eyes (OD, OS)",2040 ng/mL
same,concentration at 72 hr,"New Zealand White, rabbit, aqueous humor, other: intravitreal, 2.5 mg per eye, Group 4 intravitreal 2.5 mg per eye, 72 hr, read-out: aqueous humor Average Conc.",34.5 ng/g
same,concentration at 0.5 h,"New Zealand White, rabbit, aqueous humor, subcutaneous, 5 mg/kg, Group 2 subcutaneous 5 mg/kg, 0.5 hr, read-out: aqueous humor Average Conc.",26.1 ng/g
same,concentration at 1 h,"New Zealand White, rabbit, aqueous humor, subcutaneous, 5 mg/kg, Group 2 subcutaneous 5 mg/kg, 1.0 hr, read-out: aqueous humor Average Conc.",3.3 ng/g
same,concentration at 2 h,"New Zealand White, rabbit, aqueous humor, subcutaneous, 5 mg/kg, Group 2 subcutaneous 5 mg/kg, 2.0 hr, read-out: aqueous humor Average Conc.",0.72 ng/g
same,concentration at 2 h,"New Zealand White, rabbit, aqueous humor, subcutaneous, 5 mg/kg, Group 2 subcutaneous 5 mg/kg, 2.0 hr, read-out: aqueous humor Conc., individual eyes (OD, OS)",0.581 ng/mL
same,concentration at 0.5 hr,"New Zealand White, rabbit, aqueous humor, topical, 1.2 mg/eye, Group 1 topical ocular 1.2 mg/eye, 0.5 hr, read-out: aqueous humor Average Conc.",45.8 ng/g
same,concentration at 1 hr,"New Zealand White, rabbit, aqueous humor, topical, 1.2 mg/eye, Group 1 topical ocular 1.2 mg/eye, 1.0 hr, read-out: aqueous humor Average Conc.",15 ng/g
same,concentration at 1 hr,"New Zealand White, rabbit, aqueous humor, topical, 1.2 mg/eye, Group 1 topical ocular 1.2 mg/eye, 1.0 hr, read-out: aqueous humor Conc., individual eyes (OD, OS)",4.03 ng/mL
same,concentration at 2 h,"New Zealand White, rabbit, aqueous humor, topical, 1.2 mg/eye, Group 1 topical ocular 1.2 mg/eye, 2.0 hr, read-out: aqueous humor Average Conc.",31.6 ng/g
